Experimental data from patent publication US10039772B2, “Methods and compositions for treating alcohol use disorders” (priority 2015, dated 2018).
Entries after “also recorded” stand apart in the source; their conditions may differ.

Experiments:
[1] = in vivo; cited from earlier work
[2] = test system: C57BL/6J mice; assay: Mouse drinking in the dark (DID) binge-like drinking; format: in vivo; details: for ethanol intake in the DID paradigm: mice, 4 h drinking session, vs saline vehicle
Procedure: The DID paradigm capitalizes on the circadian rhythm in drinking of mice utilizing a discrete time of exposure to ethanol to obtain pharmacologically significant ethanol drinking in a four-day procedure (114, 115). It is considered a preclinical model of binge alcohol drinking (116). Blood ethanol levels of C57BL/6J mice in DID are reliably over 100 mg % following the final drinking bout and produce behavioral intoxication in C57BL/6J mice (115). In the DID paradigm, the water bottle is replaced with a bottle containing 20% ethanol for 2 hours in the home cage 3 hours after lights go off. The design involves 3 daily drinking sessions of 2 hours and a fourth of 4 hours (114, 115).

[3] = test system: Wistar rats; details: saccharin 0.004%; 0 and 40 mg/kg IP 90 min prior; 30 min session, FR1; listed as carbenoxolone
[4] = test system: alcohol dependent and nondependent Wistar rats; assay: Rat operant self-administration of alcohol (dependent and nondependent rats); format: in vivo; details: 0, 20, 40 mg/kg IP 90 min prior, 30 min session, FR1; for operant alcohol self-administration (lever press responding for alcohol): both dependent and nondependent rats, alcohol 10% w/v
Procedure: Self-administration sessions were conducted in standard operant conditioning chambers (Med Associates). The rats were trained to self-administer alcohol as previously reported (13). First, the rats were given free-choice access to alcohol (10% w/v) and water for 1 day in their home cages to habituate them to the taste of alcohol. Second, the rats were subjected to an overnight session in the operant chambers with access to one lever (right lever) that delivered water in a fixed-ratio 1 (FR1) schedule where every lever press is reinforced with delivery of 0.1 ml of solution. Food was available ad libitum during this training. Third, after 1 day off, the rats were subjected to a 2 hour session (FR1) for 1 day and a 1 hour session (FR1) the next day, with one lever delivering alcohol (right lever). All of the subsequent sessions lasted 30 min, and two levers were available (left lever: water; right lever: alcohol) until stable levels of intake were reached. Upon completion of this procedure, the animals were allowed to self-administer a 10% (w/v) alcohol solution and water on an FR1 schedule of reinforcement.
The rats were made dependent by chronic, intermittent exposure to alcohol vapors as previously described (13).
Effect of carbenoxolone (CBX) on alcohol drinking in rats and mice.

[5] = test system: dependent and non-dependent C57BL/6J mice; assay: Mouse limited access 2-bottle choice with chronic intermittent ethanol exposure (CIE); format: in vivo; details: for ethanol intake in non-dependent and dependent mice (CIE paradigm): limited access 2-bottle choice, acute IP
Procedure: Exposure of mice to repeated cycles of intermittent ethanol vapor in order to induce dependence increases ethanol drinking following withdrawal in a 2-bottle choice paradigm (112, 113). Thus, the CIE paradigm is used to test the effects of a drug on dependent and nondependent drinking in mice. Briefly, C57BL/6J mutant and WT mice had access to two bottles, one containing water and the other containing 15% (w/v) ethanol, for 2 hours starting 3 hours into the dark phase. Following acquisition of stable alcohol intake, half of the mice were subjected to repeated bouts of ethanol vapor exposure consisting of 16 hours per day for 4 days. Before each exposure to ethanol vapor, mice were IP injected with a solution of 20% v/v ethanol and 68.1 mg/kg pyrazole and immediately placed into ethanol vapor chambers (La Jolla Ethanol Research, CA). Tail blood sampling for blood ethanol level (BAL) determination was carried out daily. Target BALs were 150-200 mg %. Seventy-two hours following removal from the chambers, mice received access to water vs. 20% ethanol for 2 hours, and again over the next 4 days. The following week, mice were re-exposed to the ethanol vapor/control conditions and again tested for t2-bottle choice drinking for 5 days. Three vapor bouts followed by 2-bottle choice were carried out. Mice were weighed every 4-6 days throughout the 2-bottle choice sessions and daily during the vapor exposure bouts. Food and water were available ad libitum and mice were group housed except during the ethanol drinking sessions.

In the case of `CC1(C(=O)O)CCC2(C)CCC3(C)C(=CC(=O)C4C5(C)CCC(OC(=O)CCC(=O)O)C(C)(C)C5CCC43C)C2C1` (stereo not drawn) [Number 3, 18β-glycyrrhetinic acid 3β-O-hemisuccinate], the “crossing of the blood brain barrier (BBB)” value [1] is listed as “does not effectively cross”, the “time course of the effect on ethanol intake within the DID session” value ([2]; first 2 h vs whole 4 h session) is listed as “more pronounced in the first 2 hours” and the “ethanol intake in the DID paradigm” value ([2]; listed as CBX) is listed as “reduce”. The “ethanol intake in the DID paradigm” value ([2]; listed as Carbenoxolone) was “reduced”, the “operant self-administration of saccharin-sweetened water” value [3] was “did not affect” and the “operant alcohol self-administration (lever press responding for alcohol)” value ([4]; listed as CBX) was “decreases; also recorded: dose-dependently reduced”. The “operant alcohol self-administration (lever press responding for alcohol)” value ([4]; listed as carbenoxolone) was “effectively and dose-dependently reduces”, the “water intake / water responding” value ([4]; dependent and nondependent rats, listed as CBX) was “did not influence; also recorded: No significant effects” and the “ethanol intake in non-dependent and dependent mice (CIE paradigm)” value ([5]; listed as CBX) was “reduces”. The “ethanol intake in non-dependent and dependent mice (CIE paradigm)” value ([5]; listed as Carbenoxolone) was “reduced”, the “ethanol intake, dependent mice” value ([5]; limited access (2 h) 2-bottle choice after alcohol vapor, 40 mg/kg IP) was “reduced” and the “ethanol intake, non-dependent mice” value ([5]; limited access (2 h) 2-bottle choice, 20 and 40 mg/kg IP) was “reduced”.
